Experimental findings from patent US4723039A, “Phenylacetaldehydes substituted by basic groups, their preparation and drugs containing these compounds” (BASF Aktiengesellschaft, priority 1985, dated 1988) are described below.

The subject of test [1] is lesions of the gastric mucous membrane. The test is described as follows: Cytoprotective action (ethanol-induced gastric lesions). The class given is in vivo, Sprague-Dawley rat (female). To be noted: rat, oral; for ED50: dose reducing lesions by 50%, read-out: Cytoprotective effect ED 50%. How it is done: The cytoprotective action was determined on groups of 8 female Sprague-Dawley rats weighing 160-190 g, the rats having received no food for 48 hours (water ad libitum) and having been pretreated with different doses of the test substances, administered orally. 1 hour later, 10 ml/kg of 100% ethanol were administered orally to the animals. After a further hour, the animals were sacrificed by inhalation of CO2, the stomach was removed and the intensity of the lesions was assessed on the basis of the following scheme:
0=unchanged mucous membrane
1=a few areas of reddening which are narrow, elongated or small
2=reddening over broad, elongated or large interrupted areas
3=pronounced reddening which colors virtually the entire mucous membrane of the glandular stomach.

The test system of test [2] is secretion of gastric acid. Kind of test: Inhibition of secretion of gastric acid. Type of test: in vivo, Sprague-Dawley rat (female). To be noted: rat, oral; for ED (0.75 pH units): 1 h, dose increasing gastric mucosal surface pH by 0.75 pH units, read-out: Acid secretion-inhibiting effect ED 0.75; for Gastric acid secretion-inhibiting dose relative to verapamil: fraction of the dose required of verapamil. How it is done:
Inhibition of the secretion of gastric acid is evident from an increase in the pH of the surface of the gastric mucous membrane. For this measurement, groups of from 5 to 10 female Sprague-Dawley rats weighing 160-190 g, which had remained without food for 48 hours (water ad libitum), were pretreated with different doses of the test substances, administered orally. […] The dose which produces an increase in the pH by 0.75 pH units is determined as the ED 0.75, from the linear regression of log dose and the increase in the pH.

For test [3], the system named is ulcerous lesions on the mucous membrane. Kind of test: Antiulcerous action (reserpine/indomethacin-induced gastric ulceration). The settings on record: rat, oral; for ED50: dose reducing ulcerous area by 50%, read-out: Antiulcerous effect ED 50%. The class given is in vivo, Sprague-Dawley rat (female). Here is the method:
To investigate the antiulcerous action, groups of 10 female Sprague-Dawley rats weighing 160-180 g received 1 mg/kg of reserpine, administered intraperitoneally, and thereafter remained without food for 18 hours (water ad libitum). […] Thereafter, they were kept for 6 hours at 8° C. and then sacrificed. The stomach was removed and the area of the ulcerous lesions on the mucous membrane was determined.

In test [4] the test system is Histamine-induced bronchospasm. Kind of test: Broncholytic action, histamine-induced bronchospasm. Type of test: in vivo. The settings on record: guinea pig, intravenous; for ED75: Cavia porcellus, 75% reduction in bronchospasms, read-out: ED 75% histamine-induced bronchospasm; for Broncholytic activity compared with verapamil, histamine-induced (in words): text does not separate the inducers. The source says:
(§1) The animals were artificially ventilated using a Starling pump.

Test [5] relates to Acetylcholine-induced bronchospasm. Kind of test: Broncholytic action, acetylcholine-induced bronchospasm. Type of test: in vivo. To be noted: guinea pig, intravenous; for ED75: Cavia porcellus, 75% reduction in bronchospasms, read-out: ED 75% acetylcholine-induced bronchospasm; for Broncholytic activity compared with verapamil, acetylcholine-induced (in words): text does not separate the inducers.
Description: as §1

Test [6] concerns isolated spiral strips of aorta. The test is described as follows: Calcium-antagonistic action in isolated spiral strips of aorta. The settings on record: in vitro; for pEC50: Rattus norvegicus, 50% inhibition of the effect of 0.5 mM Ca++, K-depolarized strips, read-out: Ca-antagonistic action EC 50%; for Ca-antagonistic activity compared with verapamil (in words): rat aorta strips. Also noted: species or system Sprague-Dawley rat. Here is the method: The Ca-antagonistic action was tested on spiral strips of aorta of male and female Sprague-Dawley rats weighing from 200 to 300 g.
The animals were sacrificed with ether, and the thorax and thoracic aorta were removed. A maximum of 6 spiral strips about 2 mm wide and 2 cm long were used per animal.
The strips of aorta were suspended in a modified tyrode solution at 37° C. and subjected to an initial tension with a load of 1.5 g and, after a relaxation time of about 1 hour, Ca was removed by keeping them for 5 minutes in Ca-free tyrode solution with the addition of 0.2 mM of Na EDTA.
The Ca-free strips of vessel were depolarized with K-rich tyrode solution for 10 minutes. Contraction was induced by a CaCl2 concentration of 0.5 mM. After 15 minutes, Ca was again removed from the strips of vessel by means of a Ca-free tyrode solution containing 0.2 mM of Na EDTA.
Depolarization was then effected again for 10 minutes with K-rich tyrode solution, after which 0.05 ml of the test substance was added. After the test substance had been allowed to act for 15 minutes, CaCl2 was again added in a concentration of 0.5 mM in order to check whether the test substance has a Ca-antagonistic action. Inhibition of the effect of 0.5 mM Ca^++ by the antagonistic substance is stated as a percentage.

Another test has as its system blood pressure. Kind of test: Hypotensive action in anesthetized rats. Type of test: in vivo, Sprague-Dawley rat. The settings on record: anesthetized rat; for Reduction in blood pressure, i.v., R.A.: verapamil = 1.0; for ED20: iv, 20% decrease in blood pressure, read-out: Reduction in blood pressure ED 20% i.v. How it is done:
The blood pressure was measured in the carotid artery. The substances were administered intravenously into the jugular vein. The dose which produces a 20% decrease in blood pressure was calculated as the ED 20%, from the linear regression of log dose (mg/kg) and relative decrease in blood pressure (Δ%).

In another test the test system is systolic blood pressure. Kind of test: Antihypertensive action in spontaneously hypertensive rats. Type of test: in vivo, spontaneously hypertensive male Okamoto rat. The settings on record: for Reduction in blood pressure, p.o., R.A. / ED20: SH rat, p.o.; for Reduction in blood pressure, p.o., R.A.: verapamil = 1.00; for ED20: po, 2 hours after administration, 20% reduction in systolic pressure, read-out: Reduction in blood pressure ED 20% p.o. How it is done: To determine the antihypertensive action, the substances were administered orally to spontaneously hypertensive male Okamoto rats (4-8 animals/dose, weight 270-360 g). The systolic blood pressure was measured noninvasively on the rat's tail with the aid of piezoelectric transducers, before and 2 hours after administration. The dose which reduces the systolic pressure by 20%, relative to the values for untreated control animals, was determined as the ED 20%.

Structures are written as SMILES. pEC50: −log10 of the molar value. Counter-ions that a name gives are not always drawn.

`CC(C)[C@@](C=O)(CCCN(C)CCc1ccccc1)c1ccccc1` [Example 2, (S)-2-[3-[(Phenylethyl)-methylamino]-propyl]-2-isopropylphenylacetaldehyde hydrochloride]: the ED50 in test [1] was 9.4 mg/kg. For the same compound, in test [2], the ED (0.75 pH units) was found to be 2 mg/kg and the “Gastric acid secretion-inhibiting dose relative to verapamil” value was “one-fifth”. For the same compound, the ED50 in test [3] came out at 12.2 mg/kg.

Take `CC(C)[C@](C=O)(CCCN(C)CCc1ccccc1)c1ccccc1` [Example 3, (R)-2-[3-[(Phenylethyl)-methylamino]-propyl]-2-isopropylphenylacetaldehyde hydrochloride]: the ED50 in test [1] came to 8.3 mg/kg. In test [2], the ED (0.75 pH units) turned out to be 2.1 mg/kg and the “Gastric acid secretion-inhibiting dose relative to verapamil” value was “one-fifth”. Besides, the ED50 in test [3] was 3.8 mg/kg.

Turning to `COc1cccc(CCN(C)CCCC(C=O)(c2ccc(OC)c(OC)c2)C(C)C)c1` (stereo not drawn) [Example 6, 2-[3-[(3-Methoxyphenylethyl)-methylamino]-propyl]-2-isopropyl-3,4-dimethoxyphenylacetaldehyde], in test [4], the ED75 stood at 0.59 mg/kg and the “Broncholytic activity compared with verapamil, histamine-induced (in words)” value is “substantially higher activity”. In test [5], the ED75 came to 0.39 mg/kg and the “Broncholytic activity compared with verapamil, acetylcholine-induced (in words)” value was “substantially higher activity”.

Regarding `COc1cccc(CCN(C)CCCC(C=O)(c2cccc(OC)c2)C(C)C)c1` (stereo not drawn) [Example 7, 2-[3-[(3-Methoxyphenylethyl)-methylamino]-propyl]-2-isopropyl-3-methoxyphenylacetaldehyde], in test [4], the ED75 came to 0.61 mg/kg and the “Broncholytic activity compared with verapamil, histamine-induced (in words)” value is on record as “substantially higher activity”. Moreover, in test [6], the pEC50 is 7.66. Also, in test [5], the ED75 turned out to be 0.67 mg/kg and the “Broncholytic activity compared with verapamil, acetylcholine-induced (in words)” value is given as “substantially higher activity”.

As to `COc1ccc(CCN(C)CCCC(C=O)(c2ccc(OC)c(OC)c2)C(C)C)cc1OC` (stereo not drawn) [Example 8, 2-[3-[(3,4-Dimethoxyphenylethyl)-methylamino]-propyl]-2-isopropyl-3,4-dimethoxyphenylacetaldehyde], in test [4], the ED75 amounted to 0.38 mg/kg and the “Broncholytic activity compared with verapamil, histamine-induced (in words)” value is “substantially higher activity”. In test [5], the ED75 was determined as 0.23 mg/kg and the “Broncholytic activity compared with verapamil, acetylcholine-induced (in words)” value was “substantially higher activity”.

Consider `COc1cccc(CCN(C)CCCC(C=O)(c2cc(OC)c(OC)c(OC)c2)C(C)C)c1` (stereo not drawn) [Example 9, 2-[3-[(3-Methoxyphenylethyl)-methylamino]-propyl]-2-isopropyl-3,4,5-trimethoxyphenylacetaldehyde hydrogen oxalate], for which, in test [6], the pEC50 is 8.92 and the “Ca-antagonistic activity compared with verapamil (in words)” value is on record as “substantially higher activity”.

Regarding `COc1ccc(CCN(C)CCCC(C=O)(c2cc(OC)c(OC)c(OC)c2)C(C)C)cc1OC` (stereo not drawn) [Example 10, 2-[3-[3,4-Dimethoxyphenylethyl)-methylamino]-propyl]-2-isopropyl-3,4,5-trimethoxyphenylacetaldehyde hydrogen oxalate], in test [6], the pEC50 was 7.72 and the “Ca-antagonistic activity compared with verapamil (in words)” value is recorded as “substantially higher activity”.

In the case of `COc1cc(CCN(C)CCCC(C=O)(c2cc(OC)cc(OC)c2)C(C)C)cc(OC)c1` (stereo not drawn) [Example 11, 2-[3-[(3,5-Dimethoxyphenylethyl)-methylamino]-propyl]-2-isopropyl-3,5-dimethoxyphenylacetaldehyde hydrogen oxalate], in test [6], the pEC50 was 7.92 and the “Ca-antagonistic activity compared with verapamil (in words)” value is given as “substantially higher activity”.

As for `CCOc1cc(CCN(C)CCCC(C=O)(c2cc(OCC)cc(OCC)c2)C(C)C)cc(OCC)c1` (stereo not drawn) [Example 12, 2-[3-[(3,5-Diethoxyphenylethyl)-methylamino]-propyl]1-2-isopropyl-3,5-diethoxyphenylacetaldehyde hydrogen oxalate], in the test on blood pressure, the “Reduction in blood pressure, i.v., R.A.” value is given as 1.13. Moreover, in the test on blood pressure (i.v.), the “Reduction of blood pressure compared with verapamil (in words)” value is “reduces the blood pressure to a somewhat greater extent than verapamil” and the ED20 amounted to 0.3 mg/kg. Further, in test [4], the ED75 is 0.65 mg/kg and the “Broncholytic activity compared with verapamil, histamine-induced (in words)” value was “substantially higher activity”. Also, the pEC50 in test [6] is 7.49. For the same compound, in the test on systolic blood pressure, the “Reduction in blood pressure, p.o., R.A.” value worked out at 6.25 and the ED20 turned out to be 4 mg/kg. Further, the “Blood pressure reducing dose, times smaller compared with verapamil” value with systolic blood pressure (conscious spontaneously hypertensive rats, oral) stood at 6.3 times. In test [5], the ED75 came out at 0.27 mg/kg and the “Broncholytic activity compared with verapamil, acetylcholine-induced (in words)” value was “substantially higher activity”.

`COc1ccc(CCN(C)CCCC(C#N)(c2ccc(OC)c(OC)c2)C(C)C)cc1OC` (stereo not drawn) [Verapamil, verapamil, reference compound]: the “Reduction in blood pressure, i.v., R.A.” value in the test on blood pressure came out at 1.0. For the same compound, the ED20 with blood pressure (i.v.) was 0.34 mg/kg; with systolic blood pressure, 25 mg/kg. Further, in test [1], the “Cytoprotective effect ED 50% (no effect)” value is “(2)”. Besides, the ED75 came out at 1.3 mg/kg in test [4] and 0.56 mg/kg in test [5]. The pEC50 in test [6] is 7.46. Further, in test [2], the ED (0.75 pH units) was determined as 10.5 mg/kg. Moreover, the “Antiulcerous effect ED 50% (no effect)” value in test [3] is on record as “(2)”. In addition, the “Reduction in blood pressure, p.o., R.A.” value in the test on systolic blood pressure is given as 1.00.
